Test systems include MCF7 breast; PC-3 prostate; HS 578T breast; NCI/ADR-RES ovarian.
Holding throughout (assay): NCI anticancer screen, dose series, 48 h

Where “and” joins values, the source holds several entries; their conditions need not be identical. Identical values can stand only once.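 In this assay, cells in 96-well plates receive the compound at five concentrations for 48 hours. Endpoints are linearly interpolated between the surrounding concentrations. Here, GI50 denotes the concentration required for 50% inhibition of growth. TGI: concentration producing complete growth inhibition.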

Consider `Oc1nc(NCCc2ccccc2)sc1/C=C1\C=Nc2ncccc21`, for which the GI50 in the assay with MCF7 breast is 2.79 µM and 2.95 µM; in the assay with PC-3 prostate it was 3.27 µM and 3.87 µM; in the assay with HS 578T breast it was 2.55 µM and 3.19 µM; in the assay with NCI/ADR-RES ovarian it was 12.2 µM and 8.3 µM. For the same molecule, the TGI with MCF7 breast is 11.3 µM and 11.5 µM; with PC-3 prostate it was 12.2 µM and 19 µM; in the assay with HS 578T breast, 7.44 µM and 9.51 µM; in the assay on NCI/ADR-RES ovarian, 50 µM and > 100 µM.

Regarding `CN(C)CC(C(=O)c1ccccc1)c1ccccc1` (stereo not drawn), the GI50 with MCF7 breast was 1.15 µM; in the assay with PC-3 prostate, 4.12 µM; in the assay with HS 578T breast it was 2.19 µM; in the assay with NCI/ADR-RES ovarian, 2.59 µM. Besides, the TGI was 3.35 µM with MCF7 breast, 16.9 µM with PC-3 prostate, 12.8 µM in the assay with HS 578T breast and 8.37 µM with NCI/ADR-RES ovarian.

As for `Nc1nc(-c2ccccc2)c(-c2ccccc2)c(-c2nc(N)nc(-c3ccccc3)c2-c2ccccc2)n1`, the TGI with MCF7 breast, with PC-3 prostate, in the assay on HS 578T breast and in the assay with NCI/ADR-RES ovarian was over 100 µM each time.

Turning to `CC(=O)Nc1ccc2nncnc2c1`, the TGI with MCF7 breast, in the assay on PC-3 prostate, with HS 578T breast and with NCI/ADR-RES ovarian was over 100 µM each time.

In the case of `COc1cc(/C=C/C(=O)C(=Cc2ccc(F)c(F)c2)C(=O)/C=C/c2ccc(O)c(OC)c2)ccc1O`, the GI50 was 2.57 µM with MCF7 breast, 2.49 µM with PC-3 prostate, 3.25 µM in the assay on HS 578T breast and 4.06 µM in the assay on NCI/ADR-RES ovarian. Besides, the TGI in the assay on MCF7 breast was 11 µM; in the assay on PC-3 prostate, 8.31 µM; in the assay on HS 578T breast it was 15.4 µM; with NCI/ADR-RES ovarian, over 100 µM.

Take `O=C1NC(=NCc2cccs2)SC1Cc1ccc2ncccc2c1` (stereo not drawn): the GI50 in the assay on MCF7 breast was 8.79 µM; with PC-3 prostate it was 15.6 µM; in the assay on HS 578T breast it was 9.87 µM; with NCI/ADR-RES ovarian it was over 25 µM. Besides, the TGI in the assay with MCF7 breast, with PC-3 prostate, in the assay on HS 578T breast and with NCI/ADR-RES ovarian was over 25 µM each time.

For `CC/C(=N\Nc1nc2ccccc2n1C)c1ccccn1`, the GI50 was 0.0179 µM in the assay with MCF7 breast, 0.0327 µM in the assay on PC-3 prostate, 0.923 µM in the assay with HS 578T breast and 0.0382 µM with NCI/ADR-RES ovarian. For the same molecule, the TGI with MCF7 breast was found to be 13.9 µM; in the assay with PC-3 prostate, 13.8 µM; in the assay on HS 578T breast, 12.7 µM; in the assay on NCI/ADR-RES ovarian, 4.9 µM.

Regarding `O=S(=O)(NCCNc1nccc(-c2c(-c3cccc(O)c3)nc3sccn23)n1)c1ccc(F)cc1`, the GI50 in the assay on MCF7 breast was 2.39 µM; with PC-3 prostate, 5.66 µM; with HS 578T breast it was 2.93 µM; with NCI/ADR-RES ovarian it was 53 µM. The TGI was 14.9 µM with MCF7 breast, 63.5 µM in the assay with PC-3 prostate, 11.7 µM in the assay with HS 578T breast and over 100 µM in the assay on NCI/ADR-RES ovarian.

Take `Cn1cc(-c2csc(-c3c[nH]c4ncccc34)n2)c2cc(Br)cnc21`: the GI50 is 6.77 µM with MCF7 breast, 4.35 µM in the assay with PC-3 prostate, 2.43 µM in the assay with HS 578T breast and 3.89 µM with NCI/ADR-RES ovarian. Also, the TGI in the assay with MCF7 breast, in the assay with PC-3 prostate, with HS 578T breast and in the assay on NCI/ADR-RES ovarian was over 100 µM in each case.

Consider `N#Cc1ccc(Oc2nccc(-c3c(-c4ccc(F)cc4)ncn3C3CCNCC3)n2)cc1`, for which the GI50 is 10.7 µM in the assay with MCF7 breast, 13.9 µM in the assay on PC-3 prostate, over 25 µM in the assay on HS 578T breast and over 25 µM in the assay with NCI/ADR-RES ovarian. The TGI in the assay on MCF7 breast, in the assay on PC-3 prostate, in the assay with HS 578T breast and in the assay on NCI/ADR-RES ovarian was over 25 µM each time.

`COc1cc2c(cc1OCCCCNC(=O)c1cc3ccccc3[nH]1)N=CC1CCCN1C2=O` (stereo not drawn): the GI50 in the assay with MCF7 breast is 6.82 µM; with PC-3 prostate, 22 µM; in the assay on HS 578T breast it was 16.1 µM; with NCI/ADR-RES ovarian, 20.9 µM. Besides, the TGI in the assay on MCF7 breast was over 100 µM; in the assay on PC-3 prostate it was over 100 µM; in the assay on HS 578T breast, 71.5 µM; in the assay with NCI/ADR-RES ovarian, over 100 µM.

On to `COCCc1c(C)c(C#N)c2n(C)c3ccccc3n2c1=O`, for which the TGI with MCF7 breast, in the assay with PC-3 prostate, in the assay with HS 578T breast and in the assay with NCI/ADR-RES ovarian was over 10 µM in each case.

For the molecule `CCCCCCN(CCCCCC)CCCNc1nccc2ccccc12`, the GI50 in the assay on MCF7 breast is 1.56 µM; in the assay with PC-3 prostate, 2 µM; in the assay on HS 578T breast, 2.13 µM; with NCI/ADR-RES ovarian, 1.6 µM. Moreover, the TGI stood at 3.46 µM with MCF7 breast, 5.54 µM with PC-3 prostate, 5.66 µM in the assay on HS 578T breast and 3.37 µM with NCI/ADR-RES ovarian.

With `c1cncc(CNc2ccccc2-c2nnc(Nc3ccc4c(c3)OCO4)o2)c1`, the GI50 in the assay with MCF7 breast is 0.039 µM; with PC-3 prostate, 0.0898 µM; in the assay with HS 578T breast it was 0.0974 µM; with NCI/ADR-RES ovarian, 0.0291 µM. Further, the TGI in the assay with MCF7 breast is over 100 µM; in the assay with PC-3 prostate, over 76.9 µM; in the assay on HS 578T breast, over 100 µM; with NCI/ADR-RES ovarian, 0.142 µM.

For the molecule `COc1cccc(Nc2nc(NNC(=O)Cc3ccccc3)nc(NNC(=O)c3ccncc3)n2)c1`, the GI50 in the assay on MCF7 breast, in the assay on HS 578T breast and in the assay on NCI/ADR-RES ovarian was over 100 µM throughout. Also, the TGI in the assay on MCF7 breast, with PC-3 prostate, in the assay on HS 578T breast and in the assay with NCI/ADR-RES ovarian was over 100 µM throughout.

`O=C1Cc2cc(CCn3ccnc3)c(Cl)cc2N1`: the GI50 with MCF7 breast was 4.12 µM; in the assay with PC-3 prostate it was 35.6 µM; with HS 578T breast it was 0.873 µM; with NCI/ADR-RES ovarian, 5.46 µM. The TGI in the assay on MCF7 breast was over 100 µM; in the assay on PC-3 prostate it was over 100 µM; in the assay with HS 578T breast it was 9.92 µM; in the assay with NCI/ADR-RES ovarian it was over 100 µM.

Regarding `O=C(CCCn1c2c(sc3ncccc32)c(=O)n2nnc(-c3ccccc3)c12)NCCc1cnc[nH]1`, the GI50 in the assay on MCF7 breast was 18 µM; with PC-3 prostate, 10.9 µM; in the assay with HS 578T breast, 11.3 µM; in the assay with NCI/ADR-RES ovarian, 34.1 µM. The TGI with MCF7 breast was over 100 µM; in the assay with PC-3 prostate it was over 100 µM; in the assay with HS 578T breast, 31.5 µM; with NCI/ADR-RES ovarian, over 100 µM.

Source of the values: PubChem BioAssay (NCI).
